Reference: ChEMBL document CHEMBL1148729, “Specific plant terpenoids and lignoids possess potent antiviral activities against severe acute respiratory syndrome coronavirus” (J Med Chem, 2007)

Assays:
SARS-CoV [1] = test: Inhibition of SARS coronavirus-induced cytopathogenicity in Vero E6 cells at 10 uM; format: functional; details: Severe acute respiratory syndrome-related coronavirus
SARS-CoV [2] = test: Inhibition of SARS coronavirus-induced cytopathogenicity in Vero E6 cells at 20 uM; format: functional; details: Severe acute respiratory syndrome-related coronavirus
[3] = Cytotoxicity against Vero E6 cells by MTT assay; format: cell-based; details: chlorocebus sabaeus
SARS-CoV [4] = test: Antiviral activity against SARS coronavirus in Vero E6 cells assessed as inhibition of viral replication by ELISA; format: functional, organism-based; details: Severe acute respiratory syndrome-related coronavirus
[5] = Selectivity index, Ratio of CC50 for Vero E6 cells to EC50 for SARS coronavirus; format: functional
SARS-CoV [6] = test: Inhibition of SARS virus-induced cytopathogenicity in Vero E6 cells at 3.3 uM; format: functional; details: Severe acute respiratory syndrome-related coronavirus
Replicase polyprotein 1a = Replicase polyprotein 1a (Severe acute respiratory syndrome-related coronavirus, UniProt P0C6U8); test: Inhibition of SARS coronavirus 3CL protease
SARS-CoV [7] = test: Inhibition of SARS virus-induced cytopathogenicity in Vero E6 cells at 1 uM; format: functional; details: Severe acute respiratory syndrome-related coronavirus

Compound | inhibition at 10 µM (SARS-CoV [1]) [%] | inhibition at 20 µM (SARS-CoV [2]) [%] | CC50 [3] [µM] | EC50 (SARS-CoV [4]) [µM] | Ratio CC50/EC50 [5] | inhibition at 3.3 µM (SARS-CoV [6]) [%] | IC50 (Replicase polyprotein 1a) [µM] | Ki (Replicase polyprotein 1a) [µM] | inhibition at 1 µM (SARS-CoV [7]) [%]
CC(C)c1cc2c(cc1O)[C@@]1(C)CCCC(C)(C)[C@@H]1CC2=O [SUGIOL] | < 25 | < 25 |  |  |  |  |  |  | 
COc1c(C(C)C)cc2c(c1O)[C@@]1(C)CCCC(C)(C)[C@@H]1C[C@@H]2O | < 25 | < 25 | 127 | 1.15 | 111 |  |  |  | 
C=C[C@@]1(C)CC(=O)[C@]2(O)[C@@]3(C)[C@@H](O)CCC(C)(C)[C@@H]3[C@H](O)[C@H](OC(C)=O)[C@@]2(C)O1 [COLFORSIN] | 25 | < 25 | 674 | 7.5 | 89.8 | 50 |  |  | 
C=C(C)[C@@H]1CC[C@]2(C(=O)O)CC[C@]3(C)[C@H](CC[C@@H]4[C@@]5(C)CC[C@H](O)C(C)(C)[C@@H]5CC[C@]43C)[C@@H]12 [BETULINIC ACID] | 25 | < 25 | 150 | > 10 | <15 | 50 | 10 | 8.2 | 
CC(C)c1cc2c(cc1O)[C@@]1(C)CCCC(C)(C)[C@@H]1CC2 [FERRUGINOL] | < 25 | < 25 | 80.4 | 1.39 | 58 | 25 |  |  | 
CC(C)[C@@H]1NC(=O)[C@H](C)OC(=O)[C@@H](C(C)C)NC(=O)[C@@H](C(C)C)OC(=O)[C@H](C(C)C)NC(=O)[C@H](C)OC(=O)[C@@H](C(C)C)NC(=O)[C@@H](C(C)C)OC(=O)[C@H](C(C)C)NC(=O)[C@H](C)OC(=O)[C@@H](C(C)C)NC(=O)[C@@H](C(C)C)OC1=O [VALINOMYCIN] | 25 | < 25 | 67.5 | 1.63 | 41.4 | 25 |  |  | 50
O=C(Nc1ccc([N+](=O)[O-])cc1Cl)c1cc(Cl)ccc1O [NICLOSAMIDE] | 25 | < 25 | 22.1 | < 0.1 | >221 | 25 | 40 |  | 50
CC(C)c1ccc2c(c1)C(=O)C[C@H]1C(C)(C)CCC[C@]21C | < 25 | < 25 | 305 | 4 | 76.3 |  |  |  | 
C[C@@H]1CC[C@H]2[C@@](C)(CO)[C@H]3C[C@@]12CC[C@@]3(C)O | 25 | < 25 | > 750 | > 10 |  | 50 |  |  | 
COc1cc(/C=C/C(=O)CC(=O)/C=C/c2ccc(O)c(OC)c2)ccc1O [CURCUMIN] | 50 | 25 | > 250 | > 10 |  |  | 40 |  | 
CC(=O)Oc1cc2c(cc1C(C)C)C=C[C@H]1C(C)(C)[C@@H](OC(C)=O)CC[C@]21C | 25 | < 25 | 303 | 1.57 | 193 | 25 |  |  | 
C=CCc1ccc(O)c(-c2cc(CC=C)ccc2O)c1 [MAGNOLOL] | < 25 | < 25 | 68.3 | 3.8 | 18 | 50 |  |  | 
C=C(C)[C@@H]1CC[C@]2(C(=O)O)CC[C@]3(C)[C@H](CC[C@@H]4[C@@]5(C)CCC(=O)C(C)(C)[C@@H]5CC[C@]43C)[C@@H]12 [BETUNOLIC ACID] | < 25 | < 25 | 112 | 0.63 | 180 |  | > 100 |  | 
CC1=C[C@@H]2[C@@H](CC1)[C@](C)(O)CC[C@H]2C(C)C | 25 | < 25 | 76.8 | 4.44 | 17.3 | 25 |  |  | 50
COc1cc(C2c3cc(OC(=O)c4ccccc4)c(OC)cc3C[C@@H](CO)[C@@H]2CO)ccc1OC(=O)c1ccccc1 (stereo not given in full) | < 25 | < 25 |  |  |  |  |  |  | 
C=C1CC[C@@H]2[C@](C)(CCC[C@]2(C)C(=O)O)[C@H]1CCC1=CCOC1=O [PINUSOLIDIC ACID] | < 25 | < 25 | > 750 | 4.71 | >159 |  |  |  | 
O=C1OC[C@H](Cc2ccc3c(c2)OCO3)[C@H]1Cc1ccc2c(c1)OCO2 [HINOKININ] | 25 | < 25 | > 750 | > 10 |  | 25 | > 100 |  | 50
O=C1OC[C@H](Cc2ccc3c(c2)OCO3)/C1=C\c1ccc2c(c1)OCO2 [SAVININ] | < 25 | < 25 | > 750 | 1.13 | >667 |  | 25 | 9.1 | 
COc1c(C(C)C)cc2c(c1O)[C@@]1(C)CCCC(C)(C)[C@@H]1CC2=O [CRYPTOJAPONOL] | < 25 | < 25 | 78.5 | > 10 | <7.9 |  |  |  | 
CC(C)C1=C[C@]2(O)CC[C@H]3C(C)(C)CCC[C@]3(C)C2=CC1=O | < 25 | < 25 | > 750 | 1.47 | >510 | 50 |  |  | 
C=CCc1ccc(O)c(-c2ccc(O)c(CC=C)c2)c1 [HONOKIOL] | < 25 | < 25 | 88.9 | 6.5 | 13.7 | 25 |  |  | 
CC(C)C1=C(O)C(=O)C2=C(C=C[C@H]3C(C)(C)CCC[C@]23C)C1=O | 25 | < 25 | 89.7 | 5.55 | 16.2 |  |  |  | 
